Where a name gives a salt, the structure may show the parent alone.
Tests used:
[1] = tested on: NCI-H358 non-small cell lung cancer cells; assay: Inhibition of NCI-H358 cell proliferation (CellTiter-Glo 3D, 7 days); assay type: cell-based; details: Homo sapiens, NCI-H358, 168 h, 3D microspheres, read-out: Inhibitory activity against NCI-H358 cell proliferation (IC50)
Method: The number of viable cells were detected by CellTiter-Glo 3D® reagent, thereby evaluating the inhibitory effect of compounds on cell proliferation. NCI-H358 non-small cell lung cancer cells (Nanjing cobioer) in the exponential growth phase were digested with trypsin-EDTA, and seeded into 96-well ultra-low attachment microplates at 100 µL per well with a density of 2000 cells/well. The cells were cultured overnight at 37°C with 5% CO2 to form microspheres. The test compounds were serially diluted 5-fold with DMSO to obtain 8 concentration gradient dilutions, then diluted with RPMI-1640 (10% FBS) cell culture medium respectively to obtain compound working solutions (2×). 100 µL per well was added to the cell supernatant, and the culture was continued for 7 days under the conditions of 37°C and 5% CO2. The well plate was removed, and 100 µL of CellTiter-Glo 3D® reagent was added. After lysis at room temperature for 10-30 minutes, 70 µL of the lysate was aspirated and transferred to a white opaque 384-well plate.
The inhibition rate was calculated by the following formula: [formula] Note: The negative control refers to the group without inhibitor, and the blank refers to the group without cells.
The inhibitory activities of some Example compounds and comparative compounds against NCI-H358 cell proliferation are shown in Table 2. Table 2. Inhibitory activity of some Example compounds against NCI-H358 cell proliferation

SOS1 = biological target: T1, SOS1 (Homo sapiens, UniProt Q07889); assay: biochemical
T1 sequence (Q07889 1-1333): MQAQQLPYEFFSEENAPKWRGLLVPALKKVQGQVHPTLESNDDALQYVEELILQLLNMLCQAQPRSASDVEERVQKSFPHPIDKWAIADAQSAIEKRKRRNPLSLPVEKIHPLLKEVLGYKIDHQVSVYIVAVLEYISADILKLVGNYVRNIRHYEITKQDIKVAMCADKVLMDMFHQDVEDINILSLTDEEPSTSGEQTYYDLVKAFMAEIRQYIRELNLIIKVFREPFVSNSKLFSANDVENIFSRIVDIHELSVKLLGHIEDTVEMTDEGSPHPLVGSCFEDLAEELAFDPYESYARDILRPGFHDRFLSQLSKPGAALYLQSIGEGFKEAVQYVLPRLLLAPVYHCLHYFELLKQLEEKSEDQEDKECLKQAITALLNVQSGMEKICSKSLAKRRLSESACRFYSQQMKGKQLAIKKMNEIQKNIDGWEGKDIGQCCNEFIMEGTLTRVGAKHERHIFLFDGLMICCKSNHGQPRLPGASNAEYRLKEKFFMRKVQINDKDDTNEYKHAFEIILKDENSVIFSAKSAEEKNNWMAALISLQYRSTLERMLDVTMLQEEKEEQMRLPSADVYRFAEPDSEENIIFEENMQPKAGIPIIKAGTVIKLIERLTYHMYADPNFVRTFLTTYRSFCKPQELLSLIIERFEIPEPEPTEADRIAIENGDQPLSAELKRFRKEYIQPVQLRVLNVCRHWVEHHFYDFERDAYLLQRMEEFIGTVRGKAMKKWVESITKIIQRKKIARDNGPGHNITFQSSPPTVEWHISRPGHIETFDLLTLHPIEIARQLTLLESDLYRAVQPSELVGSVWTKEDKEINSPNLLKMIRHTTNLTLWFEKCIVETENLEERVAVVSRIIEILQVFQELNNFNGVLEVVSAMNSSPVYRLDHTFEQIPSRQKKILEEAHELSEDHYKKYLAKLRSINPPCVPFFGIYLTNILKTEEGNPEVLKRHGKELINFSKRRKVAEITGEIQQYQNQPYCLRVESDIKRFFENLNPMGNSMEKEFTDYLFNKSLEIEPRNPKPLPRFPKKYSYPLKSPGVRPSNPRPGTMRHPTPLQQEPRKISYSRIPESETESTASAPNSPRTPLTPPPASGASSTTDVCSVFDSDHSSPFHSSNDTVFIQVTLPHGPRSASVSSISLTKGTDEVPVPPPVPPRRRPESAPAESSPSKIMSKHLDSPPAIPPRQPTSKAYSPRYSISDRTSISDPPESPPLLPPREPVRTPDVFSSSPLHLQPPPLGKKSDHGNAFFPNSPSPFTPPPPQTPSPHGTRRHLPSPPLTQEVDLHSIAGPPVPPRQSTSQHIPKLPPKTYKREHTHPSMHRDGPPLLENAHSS

C[C@@H](Nc1nnc(N2CCCC2)c2cc(=O)n(C3(C)CC3)cc12)c1cccc(C(F)F)c1F [Example 5, (R)-4-((1-(3-(difluoromethyl)-2-fluorophenyl)ethyl)amino)-6-(1-methylcyclopropyl)-1-(pyrrolidin-1-yl)pyrido[3,4-d]pyridazin-7(6H)-one]
IC50 [1]: 0.0501 µM | IC50 (SOS1): 0.0047 µM

C[C@@H](Nc1nnc(N2CCC2)c2cc(=O)n(C3(C)CC3)cc12)c1cccc(C(F)F)c1F [Example 16, (R)-1-(azetidin-1-yl)-4-((1-(3-(difluoromethyl)-2-fluorophenyl)ethyl)amino)-6-(1-methylcyclopropyl) pyrido[3,4-d]pyridazin-7(6H)-one formate]
IC50 [1]: 0.0578 µM | IC50 (SOS1): 0.0041 µM

Cc1c([C@@H](C)Nc2nnc(N3CCCC3)c3cc(=O)n(C4CC4)cc23)cccc1C(F)(F)F [Example 49, (R)-6-cyclopropyl-4-((1-(2-methyl-3-(trifluoromethyl)phenyl)ethyl)amino)-1-(pyrrolidin-1-yl) pyrido[3,4-d]pyridazin-7(6H)-one]
IC50 [1]: 0.0551 µM | IC50 (SOS1): 0.006 µM

Cc1c([C@@H](C)Nc2nnc(N3CCCC3)c3cc(=O)n(C4(C)CC4)cc23)cccc1C(F)(F)F [Example 61, (R)-4-((1-(2-methyl-3-(trifluoromethyl)phenyl)ethyl)amino)-6-(1-methylcyclopropyl)-1-(pyrrolidin-1-yl)pyrido[3,4-d]pyridazin-7(6H)-one]
IC50 [1]: 0.0318 µM | IC50 (SOS1): 0.0061 µM

Cc1c([C@@H](C)Nc2nnc(N3CCN(C)CC3)c3cc(=O)n(C4(C)CC4)cc23)cccc1C(F)(F)F [Example 81, (R)-4-((1-(2-methyl-3-(trifluoromethyl)phenyl)ethyl)amino)-6-(1-methylcyclopropyl)-1-(4-methylpiperazin-1-yl)pyrido[3,4-d]pyridazin-7(6H)-one]
IC50 [1]: 0.0653 µM | IC50 (SOS1): 0.0063 µM

C[C@@H](Nc1nnc(N2CCN(C)CC2)c2cc(=O)n(C3CC3)cc12)c1cccc(S(F)(F)(F)(F)F)c1 [Example 89, (R)-6-cyclopropyl-1-(4-methylpiperazin-1-yl)-4-((1-(3-(pentafluoro-λ^6-sulfaneyl)phenyl)ethyl)amino)pyrido[3,4-d]pyridazin-7(6H)-one]
IC50 [1]: 0.0586 µM | IC50 (SOS1): 0.0041 µM

CCNc1nnc(N[C@H](C)c2cccc(C(F)F)c2F)c2cn(C3(C)CC3)c(=O)cc12 [Example 105, (R)-4-((1-(3-(difluoromethyl)-2-fluorophenyl)ethyl)amino)-1-(ethylamino)-6-(1-methylcyclopropyl) pyrido[3,4-d]pyridazin-7(6H)-one]
IC50 [1]: 0.0581 µM | IC50 (SOS1): 0.0047 µM

C[C@@H](Nc1nnc(NC2CCOC2)c2cc(=O)n(C3(C)CC3)cc12)c1cccc(C(F)F)c1F (stereo partly drawn) [Example 119, 4-(((R)-1-(3-(difluoromethyl)-2-fluorophenyl)ethyl)amino)-6-(1-methylcyclopropyl)-1-((tetrahydrofuran-3-yl)amino)pyrido[3,4-d]pyridazin-7(6H)-one formate]
IC50 [1]: 0.0591 µM | IC50 (SOS1): 0.0043 µM

CC1CN(c2nnc(N[C@H](C)c3cccc(C(F)F)c3F)c3cn(C4(C)CC4)c(=O)cc23)C1 [Example 130, (R)-4-((1-(3-(difluoromethyl)-2-fluorophenyl)ethyl)amino)-1-(3-methylazetidin-1-yl)-6-(1-methylcyclopropyl) pyrido[3,4-d]pyridazin-7(6H)-one]
IC50 [1]: 0.0478 µM | IC50 (SOS1): 0.0034 µM

C[C@@H](Nc1nnc(N2CCN(C)CC2)c2cc(=O)n(N3CCN(C)CC3)cc12)c1cccc(C(F)F)c1F [Example 151, (R)-4-((1-(3-(difluoromethyl)-2-fluorophenyl)ethyl)amino)-1,6-bis(4-methylpiperazin-1-yl)pyrido[3,4-d]pyridazin-7(6H)-one]
IC50 [1]: 0.0394 µM | IC50 (SOS1): 0.0038 µM

CCN1CCN(c2nnc(N[C@H](C)c3cccc(C(F)(F)F)c3)c3cn(C4(C)CC4)c(=O)cc23)CC1 [Example 156, (R)-1-(4-ethylpiperazin-1-yl)-6-(1-methylcyclopropyl)-4-((1-(3-(trifluoromethyl)phenyl)ethyl)amino)pyr ido[3,4-d]pyridazin-7(6H)-one formate]
IC50 [1]: 0.0474 µM | IC50 (SOS1): 0.0054 µM

C[C@@H](Nc1nnc(N2CCN(C)CC2)c2cc(=O)n(C3(C)CC3)cc12)c1cccc(C(F)(F)F)c1 [Example 157, (R)-1-(4-methylpiperazin-1-yl)-6-(1-methylcyclopropyl)-4-((1-(3-(trifluoromethyl)phenyl)ethyl)amino)pyr ido[3,4-d]pyridazin-7(6H)-one formate]
IC50 [1]: 0.0522 µM | IC50 (SOS1): 0.0051 µM

C[C@@H](Nc1nnc(N2CCN(C)CC2)c2cc(=O)n(C3(C)CC3)cc12)c1cccc(C(F)(F)F)c1F [Example 164, (R)-4-((1-(2-fluoro-3-(trifluoromethyl)phenyl)ethyl)amino)-6-(1-methylcyclopropyl)-1-(4-methylpiperazin-1-yl)pyrido[3,4-d]pyridazin-7(6H)-one]
IC50 [1]: 0.0328 µM | IC50 (SOS1): 0.0042 µM

CCN1CCN(c2nnc(N[C@H](C)c3cccc(C(F)(F)F)c3F)c3cn(C4(C)CC4)c(=O)cc23)CC1 [Example 168, (R)-1-(4-ethylpiperazin-1-yl)-4-((1-(2-fluoro-3-(trifluoromethyl)phenyl)ethyl)amino)-6-(1-methylcyclopropyl) pyrido[3,4-d]pyridazin-7(6H)-one formate]
IC50 [1]: 0.0355 µM | IC50 (SOS1): 0.0041 µM

C[C@@H]1CN(c2nnc(N[C@H](C)c3cccc(C(F)(F)F)c3)c3cn(C4(C)CC4)c(=O)cc23)CCN1C [Example 176, 1-((R)-3,4-dimethylpiperazin-1-yl)-6-(1-methylcyclopropyl)-4-(((R)-1-(3-(trifluoromethyl)phenyl)ethyl)amino)pyr ido[3,4-d]pyridazin-7(6H)-one formate]
IC50 [1]: 0.0323 µM | IC50 (SOS1): 0.006 µM

C[C@@H](Nc1nnc(N2CC3(CCC3)C2)c2cc(=O)n(C3(C)CC3)cc12)c1cccc(C(F)F)c1F [Example 191, (R)-4-((1-(3-(difluoromethyl)-2-fluorophenyl)ethyl)amino)-6-(1-methylcyclopropyl)-1-(2-azaspiro[3.3]heptan-2-yl)pyrido[3,4-d]pyridazin-7(6H)-one]
IC50 [1]: 0.0393 µM | IC50 (SOS1): 0.0045 µM

C[C@@H](Nc1nnc(N2CCN3CCCC3C2)c2cc(=O)n(C3(C)CC3)cc12)c1cccc(C(F)F)c1F (stereo partly drawn) [Example 192, 4-(((R)-1-(3-(difluoromethyl)-2-fluorophenyl)ethyl)amino)-1-(hexahydropyrrolo[1,2-a]pyrazin-2(1H)-yl)-6-(1-methylcyclopropyl) pyrido[3,4-d]pyridazin-7(6H)-one]
IC50 [1]: 0.0288 µM | IC50 (SOS1): 0.0038 µM

Cc1nnc(N[C@H](C)c2cccc(C(F)(F)F)c2)c2cn(C3(C)CC3)c(=O)cc12 [comparative compound2, (R)-1-methyl-6-(1-methylcyclopropyl)-4-((1-(3-(trifluoromethyl)phenyl)ethyl)amino)pyrido[3,4-d]pyridazin-7(6H)-one hydrochloride, reference compound]
IC50 [1]: 0.377 µM

Cc1c([C@@H](C)Nc2nnc(C)c3cc(=O)n(C4(C)CC4)cc23)cccc1C(F)(F)F [comparative compound 1, (R)-1-methyl-4-((1-(2-methyl-3-(trifluoromethyl)phenyl)ethyl)amino)-6-(1-methylcyclopropyl) pyrido[3,4-d]pyridazin-7(6H)-one, reference compound]
IC50 [1]: 0.282 µM

Source: patent EP4722213A1, “NITROGEN-CONTAINING FUNCTIONAL GROUP-SUBSTITUTED PYRIDAZINOPYRIDONE DERIVATIVE AND USE THEREOF” (Sichuan Huiyu Pharmaceutical Co., Ltd., priority 2023, dated 2024)
